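Briefly, cells in 96-well plates were exposed to five compound concentrations for 48 h, and endpoints were estimated by linear interpolation. GI50 = concentration required for 50% inhibition of growth. Definition used: TGI = concentration required for complete inhibition of growth.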

Among the test systems are HCT-15 colon; SF-268 CNS; NCI-H460 lung; RPMI-8226 leukemia; SK-OV-3 ovarian; MOLT-4 leukemia; A549 NSCLC; HCC-2998 colon; RXF 393 renal; NCI-H226 lung.
Common to all, as to assay: NCI-60 cell line screen, 48 h

With `CCOC(=O)O/N=C1/C(c2c(O)[nH]c3ccccc23)=Nc2ccccc21`, the TGI with HCT-15 colon was 20.4 µM; with SF-268 CNS, 68.2 µM; in the assay on NCI-H460 lung, 15.8 µM; with RPMI-8226 leukemia, > 100 µM; in the assay with SK-OV-3 ovarian it was 7.07 µM; in the assay on MOLT-4 leukemia, > 100 µM. Further, the TGI with A549 NSCLC was found to be 33.1 µM; in the assay with HCC-2998 colon it was 6.46 µM; in the assay with RXF 393 renal, 6.16 µM.
For the compound `S=C1CSc2c(cnc3ccccc23)N1`, the TGI with HCT-15 colon, with SF-268 CNS, with NCI-H460 lung, with RPMI-8226 leukemia, in the assay with SK-OV-3 ovarian and in the assay with MOLT-4 leukemia was > 100 µM in each case. The TGI in the assay on A549 NSCLC, in the assay on RXF 393 renal and in the assay with NCI-H226 lung was > 100 µM throughout.
As for `CC1CN=C(N(C)C(=O)Nc2ccc(Cl)c(Cl)c2)S1` (stereo not drawn), the TGI in the assay with HCT-15 colon is 91.5 µM; with SF-268 CNS, > 100 µM; with NCI-H460 lung it was > 100 µM; in the assay with RPMI-8226 leukemia, > 100 µM; in the assay on SK-OV-3 ovarian, > 100 µM; in the assay on MOLT-4 leukemia, > 100 µM. Further, the TGI in the assay on A549 NSCLC and with HCC-2998 colon was > 100 µM each time.
Turning to `C=CCc1cccc2cc(C(=O)Nc3nc(C45CC6CC(CC(C6)C4)C5)cs3)c(=O)oc12`, the TGI in the assay on HCT-15 colon is > 100 µM; with SF-268 CNS it was 55 µM; in the assay with NCI-H460 lung, > 100 µM; with RPMI-8226 leukemia, > 100 µM; in the assay on MOLT-4 leukemia, > 100 µM; in the assay on A549 NSCLC, > 100 µM. Besides, the TGI was > 100 µM in the assay on HCC-2998 colon, 22.5 µM in the assay on RXF 393 renal and > 100 µM in the assay with NCI-H226 lung.
With `NC(CNc1ccc(O)cc1)C(=O)O` (stereo not drawn), the TGI in the assay on HCT-15 colon, with SF-268 CNS, in the assay with NCI-H460 lung, in the assay with RPMI-8226 leukemia, in the assay on SK-OV-3 ovarian and in the assay on MOLT-4 leukemia was > 100 µM throughout. Also, the TGI in the assay with A549 NSCLC, with RXF 393 renal and in the assay with NCI-H226 lung was > 100 µM throughout.
Consider `CCCN(CCC)c1c([N+](=O)[O-])cc(C(=O)N(C)C)cc1[N+](=O)[O-]`, for which the TGI in the assay on HCT-15 colon, with SF-268 CNS, with NCI-H460 lung, in the assay on RPMI-8226 leukemia, in the assay on SK-OV-3 ovarian and in the assay on MOLT-4 leukemia was > 100 µM in each case. The TGI with A549 NSCLC and in the assay on HCC-2998 colon was > 100 µM each time.
Take `O=C(CCC(=O)OCC1OC(O)(CC2OC(CO)C(O)C(O)C2O)C(O)C1O)OCc1ccccc1` (stereo not drawn): the TGI with HCT-15 colon, with SF-268 CNS, in the assay with NCI-H460 lung, with SK-OV-3 ovarian, with A549 NSCLC and with HCC-2998 colon was > 100 µM throughout. The TGI with RXF 393 renal and in the assay on NCI-H226 lung was > 100 µM in each case.
As for `CCOC(=O)C12C(=O)CCN1CCc1ccccc1C2C` (stereo not drawn), the TGI with HCT-15 colon, in the assay with SF-268 CNS, in the assay with RPMI-8226 leukemia, in the assay on SK-OV-3 ovarian, with MOLT-4 leukemia and in the assay with A549 NSCLC was > 100 µM throughout. Besides, the TGI with RXF 393 renal and in the assay on NCI-H226 lung was > 100 µM throughout.
Regarding `COc1cc(C2C3=C(N=C4SC(C(C)=O)=C(C)N42)c2ccccc2CC3)cc(OC)c1OC` (stereo not drawn), the TGI in the assay with SF-268 CNS was > 100 µM; in the assay on RPMI-8226 leukemia, 93.4 µM; in the assay on SK-OV-3 ovarian it was > 100 µM; in the assay on A549 NSCLC, > 100 µM; with HCC-2998 colon it was > 100 µM; in the assay on RXF 393 renal, > 100 µM. Moreover, the TGI in the assay with NCI-H226 lung was > 100 µM.
Take `OC1(c2ccc(Cl)cc2)c2ccccc2C2=NCc3ccccc3CN21` (stereo not drawn): the TGI in the assay with HCT-15 colon is 20 µM; with SF-268 CNS, 25.3 µM; with NCI-H460 lung, 23.7 µM; with RPMI-8226 leukemia, > 48.6 µM; in the assay on SK-OV-3 ovarian, 21.2 µM; in the assay with MOLT-4 leukemia, > 47.6 µM. Besides, the results for the TGI with A549 NSCLC, with HCC-2998 colon and with NCI-H226 lung were 19.2 µM, 5.13 µM and 20.8 µM, respectively.
As for `CC(C)(CN1CCCCC1)C(=O)/C=C/c1c(Cl)cccc1Cl`, the TGI in the assay with HCT-15 colon was determined as 2.28 µM; in the assay with SF-268 CNS, 3.88 µM; in the assay with NCI-H460 lung, 3.86 µM; in the assay with SK-OV-3 ovarian it was 8.47 µM; in the assay with A549 NSCLC, 5.51 µM; in the assay with HCC-2998 colon, 3.23 µM. Besides, the TGI with RXF 393 renal was determined as 2.39 µM; in the assay with NCI-H226 lung it was 9.88 µM.
For `CN(/N=C/c1ccc(Cl)c(Cl)c1)C1=NCCN1`, the TGI in the assay with HCT-15 colon is > 100 µM; in the assay on SF-268 CNS, > 100 µM; in the assay on NCI-H460 lung, > 100 µM; with RPMI-8226 leukemia, 60.9 µM; with SK-OV-3 ovarian, 81.8 µM; in the assay on MOLT-4 leukemia it was 59.8 µM. The TGI in the assay with A549 NSCLC was > 100 µM; in the assay with HCC-2998 colon it was 75.2 µM; in the assay on NCI-H226 lung, 72 µM.
As to `CCCCNCC(O)c1cc(-c2ccc(C(F)(F)F)cc2)nc(-c2ccc(C(F)(F)F)cc2)c1` (stereo not drawn), in the assay with SF-268 CNS, the GI50 was 1.97 µM and the TGI came out at 3.89 µM. In the assay on A549 NSCLC, the GI50 was 1.64 µM and the TGI is 3.36 µM.
Consider `COC1=C(OC)C(=O)C(Cc2c(Cl)nc3n2CCS3)=C(C)C1=O`, for which the TGI came to 39.8 µM in the assay with HCT-15 colon; 41.3 µM in the assay with SF-268 CNS; 30.8 µM in the assay with NCI-H460 lung; 26.9 µM in the assay on RPMI-8226 leukemia; 25.1 µM in the assay with SK-OV-3 ovarian; 3.28 µM with MOLT-4 leukemia. For the same compound, the TGI with A549 NSCLC turned out to be 40.6 µM; with HCC-2998 colon, 37.6 µM; in the assay on RXF 393 renal it was 36.4 µM.
Regarding `COc1cc(C)cc(OC)c1/C=C/C(=O)O`, the TGI in the assay on HCT-15 colon, in the assay with SF-268 CNS, in the assay on NCI-H460 lung, with RPMI-8226 leukemia, in the assay with MOLT-4 leukemia and with A549 NSCLC was > 100 µM each time. Moreover, the TGI with HCC-2998 colon, in the assay with RXF 393 renal and with NCI-H226 lung was > 100 µM in each case.
